{"source": "ChEMBL document CHEMBL4689842", "about": "“EUbOPEN Chemogenomics Library wave 1” (2021)", "system": "U2OS", "test": "Incucyte cell viability with U2OS; further: filed as whole numbers so only -1 and 0 and 1 occur", "format": "toxicity, cell-based", "details": "human, 10 µM, compound concentration 10 uM", "key": {"[1]": {"details": "6 h, replicate number 2, timepoint 6 hours"}, "[2]": {"details": "12 h, replicate number 1, timepoint 12 hours"}, "[3]": {"details": "12 h, replicate number 2, timepoint 12 hours"}, "[4]": {"details": "18 h, replicate number 1, timepoint 18 hours"}, "[5]": {"details": "24 h, replicate number 1, timepoint 24 hours"}, "[6]": {"details": "0 h, replicate number 1, timepoint 0 hours"}, "[7]": {"details": "0 h, replicate number 2, timepoint 0 hours"}, "[8]": {"details": "6 h, replicate number 1, timepoint 6 hours"}, "[9]": {"details": "18 h, replicate number 2, timepoint 18 hours"}, "[10]": {"details": "24 h, replicate number 2, timepoint 24 hours"}}}
{"smiles": "C[C@@H](NCCCc1cccc(C(F)(F)F)c1)c1cccc2ccccc12.Cl", "note": "[CINACALCET HYDROCHLORIDE]", "values": [{"measurement": "Growth Rate", "setting": "[1]", "value": 0}, {"measurement": "Growth Rate", "setting": "[2]", "value": 1}, {"measurement": "Growth Rate", "setting": "[3]", "value": 0}, {"measurement": "Growth Rate", "setting": "[4]", "value": 0}, {"measurement": "Growth Rate", "setting": "[5]", "value": 0}]}
{"smiles": "CCN(CC)CCCCNc1ncc2cc(-c3cc(OC)cc(OC)c3)c(NC(=O)NC(C)(C)C)nc2n1", "note": "[PD-173074]", "values": [{"measurement": "Growth Rate", "setting": "[6]", "value": 1}, {"measurement": "Growth Rate", "setting": "[7]", "value": 0}, {"measurement": "Growth Rate", "setting": "[8]", "value": 0}, {"measurement": "Growth Rate", "setting": "[1]", "value": 1}, {"measurement": "Growth Rate", "setting": "[2]", "value": 0}, {"measurement": "Growth Rate", "setting": "[3]", "value": 1}, {"measurement": "Growth Rate", "setting": "[4]", "value": 0}, {"measurement": "Growth Rate", "setting": "[9]", "value": 1}, {"measurement": "Growth Rate", "setting": "[5]", "value": 0}]}
{"smiles": "C=CC(=O)Nc1ccc2ncnc(Nc3ccc(OCc4cccc(F)c4)c(Cl)c3)c2c1.Cc1ccc(S(=O)(=O)O)cc1", "values": [{"measurement": "Growth Rate", "setting": "[7]", "value": 1}, {"measurement": "Growth Rate", "setting": "[1]", "value": 0}, {"measurement": "Growth Rate", "setting": "[2]", "value": 1}, {"measurement": "Growth Rate", "setting": "[4]", "value": 0}, {"measurement": "Growth Rate", "setting": "[5]", "value": 0}]}
{"smiles": "Nc1c(C(=O)NCc2ccc(C(=O)NCCCC3CCCCC3)cc2)cnn1-c1ccccc1", "note": "[SR-318]", "values": [{"measurement": "Growth Rate", "setting": "[7]", "value": 0}, {"measurement": "Growth Rate", "setting": "[8]", "value": 1}, {"measurement": "Growth Rate", "setting": "[2]", "value": 1}, {"measurement": "Growth Rate", "setting": "[4]", "value": 1}, {"measurement": "Growth Rate", "setting": "[5]", "value": 1}]}
{"smiles": "C=CC(=O)Nc1cc2c(Nc3ccc(F)c(Cl)c3)ncnc2cc1OCCCN1CCOCC1.Cl.Cl", "note": "[CANERTINIB DIHYDROCHLORIDE]", "values": [{"measurement": "Growth Rate", "setting": "[8]", "value": 0}, {"measurement": "Growth Rate", "setting": "[2]", "value": 0}, {"measurement": "Growth Rate", "setting": "[4]", "value": 0}, {"measurement": "Growth Rate", "setting": "[5]", "value": 0}]}
{"smiles": "CNc1nc(NCc2ccc(NS(C)(=O)=O)cc2Cl)cc(-c2ccccn2)n1", "values": [{"measurement": "Growth Rate", "setting": "[6]", "value": 0}, {"measurement": "Growth Rate", "setting": "[8]", "value": 0}, {"measurement": "Growth Rate", "setting": "[2]", "value": 0}, {"measurement": "Growth Rate", "setting": "[4]", "value": 0}, {"measurement": "Growth Rate", "setting": "[5]", "value": 0}]}
{"smiles": "CN1CCN(CCOc2cc(OC3CCOCC3)c3c(Nc4c(Cl)ccc5c4OCO5)ncnc3c2)CC1", "note": "[SARACATINIB]", "values": [{"measurement": "Growth Rate", "setting": "[8]", "value": 0}, {"measurement": "Growth Rate", "setting": "[2]", "value": 0}, {"measurement": "Growth Rate", "setting": "[3]", "value": 1}, {"measurement": "Growth Rate", "setting": "[4]", "value": 0}, {"measurement": "Growth Rate", "setting": "[9]", "value": 1}, {"measurement": "Growth Rate", "setting": "[5]", "value": 0}, {"measurement": "Growth Rate", "setting": "[10]", "value": 1}]}
{"smiles": "CC(C)(O)CNc1ncc(-c2ccnc(Nc3ccnc(Cl)c3)n2)c(CC2CC2)n1", "values": [{"measurement": "Growth Rate", "setting": "[6]", "value": 0}, {"measurement": "Growth Rate", "setting": "[8]", "value": 1}, {"measurement": "Growth Rate", "setting": "[2]", "value": 0}, {"measurement": "Growth Rate", "setting": "[4]", "value": 0}, {"measurement": "Growth Rate", "setting": "[9]", "value": 1}, {"measurement": "Growth Rate", "setting": "[5]", "value": 0}, {"measurement": "Growth Rate", "setting": "[10]", "value": 1}]}
{"smiles": "CN(C)CC#Cc1ccc(OCCCc2sc(N3CCc4cccc(C(=O)Nc5nc6ccccc6s5)c4C3)nc2C(=O)O)c(F)c1", "note": "[A-1155463]", "values": [{"measurement": "Growth Rate", "setting": "[6]", "value": 0}, {"measurement": "Growth Rate", "setting": "[8]", "value": 0}, {"measurement": "Growth Rate", "setting": "[2]", "value": 0}, {"measurement": "Growth Rate", "setting": "[3]", "value": 1}, {"measurement": "Growth Rate", "setting": "[4]", "value": 0}, {"measurement": "Growth Rate", "setting": "[5]", "value": 0}]}
{"smiles": "COc1ncc(-c2ccc3nccc(-c4ccnnc4)c3c2)cc1NS(=O)(=O)c1ccc(F)cc1F", "note": "[OMIPALISIB]", "values": [{"measurement": "Growth Rate", "setting": "[6]", "value": 1}, {"measurement": "Growth Rate", "setting": "[8]", "value": 1}, {"measurement": "Growth Rate", "setting": "[2]", "value": 1}, {"measurement": "Growth Rate", "setting": "[4]", "value": 0}, {"measurement": "Growth Rate", "setting": "[5]", "value": 0}]}
{"smiles": "C[C@@]1(C(=O)Nc2ccc(F)nc2)CCCN1c1nc(Nc2cc(C3CC3)n[nH]2)c2cccn2n1", "note": "[BMS-754807]", "values": [{"measurement": "Growth Rate", "setting": "[6]", "value": 0}, {"measurement": "Growth Rate", "setting": "[8]", "value": 0}, {"measurement": "Growth Rate", "setting": "[2]", "value": 0}, {"measurement": "Growth Rate", "setting": "[4]", "value": 0}, {"measurement": "Growth Rate", "setting": "[5]", "value": 0}]}
{"smiles": "O=C(NCCN1CCOCC1)c1ccc2c(c1)C(=O)c1ccc(Nc3ccc(F)c(NC(=O)c4ccccc4)c3)cc1CC2", "note": "[FS-694]", "values": [{"measurement": "Growth Rate", "setting": "[7]", "value": 0}, {"measurement": "Growth Rate", "setting": "[2]", "value": 1}, {"measurement": "Growth Rate", "setting": "[4]", "value": 0}, {"measurement": "Growth Rate", "setting": "[5]", "value": 0}, {"measurement": "Growth Rate", "setting": "[10]", "value": 1}]}
{"smiles": "CN1CCC[C@@H]1CCO[C@](C)(c1ccccc1)c1ccc(Cl)cc1.O=C(O)/C=C/C(=O)O", "note": "[CLEMASTINE FUMARATE]", "values": [{"measurement": "Growth Rate", "setting": "[1]", "value": 0}, {"measurement": "Growth Rate", "setting": "[2]", "value": 0}, {"measurement": "Growth Rate", "setting": "[4]", "value": 0}, {"measurement": "Growth Rate", "setting": "[5]", "value": 0}]}
